The source of these data is ChEMBL document CHEMBL4325920, “Discovery of Clinical Candidate BMS-823778 as an Inhibitor of Human 11β-Hydroxysteroid Dehydrogenase Type 1 (11β-HSD-1)” (ACS Med Chem Lett, 2018).

Active and inactive are the calls of the source. The rule behind the calls is not given here.

Assay [1] has as its target 11-beta-hydroxysteroid dehydrogenase 1 (Mus musculus, UniProt P50172). Kind of assay: Inhibition of recombinant mouse 11beta-HSD1 expressed in HEK293 cell microsomes using [3H]cortisone as substrate after 4 hrs by homogeneous immuno-radiometric scintillation proximity assay. A general note: In a scintillation proximity assay essentially only radioactivity close to the scintillant gives light.

The target in assay [2] is T1, Nuclear receptor subfamily 1 group I member 2 (Homo sapiens, UniProt O75469).
T1 sequence (O75469 whole entry): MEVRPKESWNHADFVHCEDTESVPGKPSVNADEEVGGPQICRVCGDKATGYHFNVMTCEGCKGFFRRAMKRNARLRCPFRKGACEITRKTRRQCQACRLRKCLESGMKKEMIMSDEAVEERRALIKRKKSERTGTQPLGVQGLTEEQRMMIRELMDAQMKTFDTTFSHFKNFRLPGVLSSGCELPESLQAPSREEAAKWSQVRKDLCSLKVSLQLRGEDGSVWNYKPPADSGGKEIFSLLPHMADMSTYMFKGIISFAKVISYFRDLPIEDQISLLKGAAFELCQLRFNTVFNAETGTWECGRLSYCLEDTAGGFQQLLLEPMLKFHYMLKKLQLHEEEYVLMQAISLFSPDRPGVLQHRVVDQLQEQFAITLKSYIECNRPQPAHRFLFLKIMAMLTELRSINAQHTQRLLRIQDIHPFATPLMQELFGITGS
Kind of assay: Activation of PXR (unknown origin). In kind it is ADME.

Assay [3] deals with T2, 11-beta-hydroxysteroid dehydrogenase type 2 (Homo sapiens) (UniProt P80365).
T2 sequence (whole entry): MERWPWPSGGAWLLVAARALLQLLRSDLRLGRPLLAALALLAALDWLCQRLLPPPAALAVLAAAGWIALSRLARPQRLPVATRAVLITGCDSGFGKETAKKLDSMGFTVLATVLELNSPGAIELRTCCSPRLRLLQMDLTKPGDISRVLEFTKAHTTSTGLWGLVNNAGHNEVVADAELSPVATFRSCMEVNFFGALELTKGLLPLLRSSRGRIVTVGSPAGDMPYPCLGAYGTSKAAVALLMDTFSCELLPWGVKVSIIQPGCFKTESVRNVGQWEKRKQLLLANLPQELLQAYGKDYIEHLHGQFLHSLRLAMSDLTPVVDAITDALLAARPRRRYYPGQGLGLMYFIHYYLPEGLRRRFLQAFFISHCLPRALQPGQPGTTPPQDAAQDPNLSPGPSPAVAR
The assay can be described thus: Inhibition of recombinant human 11beta-HSD2 expressed in cells up to 30 uM using […] as substrate by LC-MS analysis. The assay is classed as cell-based.

The nature of assay [4]: Selectivity ratio of Ki for recombinant mouse 11beta-HSD1 expressed in HEK293 cell microsomes to Ki for recombinant cynomolgus monkey 11beta-HSD1 expressed in HEK293 cell microsomes.
Assay [5] has as its target T3, 11-beta-hydroxysteroid dehydrogenase type 2 (Rattus norvegicus) (UniProt P50233).
T3 sequence (whole entry): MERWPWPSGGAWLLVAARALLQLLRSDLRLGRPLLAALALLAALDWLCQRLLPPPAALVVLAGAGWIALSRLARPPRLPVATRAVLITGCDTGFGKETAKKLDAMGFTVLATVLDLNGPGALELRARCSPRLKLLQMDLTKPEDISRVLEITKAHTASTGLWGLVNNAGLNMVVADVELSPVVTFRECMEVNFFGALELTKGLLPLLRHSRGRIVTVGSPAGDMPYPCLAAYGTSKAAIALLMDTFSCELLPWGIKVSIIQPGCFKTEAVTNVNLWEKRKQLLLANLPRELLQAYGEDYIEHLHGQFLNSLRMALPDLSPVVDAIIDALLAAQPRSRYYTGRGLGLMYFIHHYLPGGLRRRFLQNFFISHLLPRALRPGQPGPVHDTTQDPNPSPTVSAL
The assay can be described thus: Inhibition of rat 11beta-HSD2 up to 20 uM.

Assay [6] has as its target T4, 11-beta-hydroxysteroid dehydrogenase type 2 (Mus musculus) (UniProt P51661).
T4 sequence (whole entry): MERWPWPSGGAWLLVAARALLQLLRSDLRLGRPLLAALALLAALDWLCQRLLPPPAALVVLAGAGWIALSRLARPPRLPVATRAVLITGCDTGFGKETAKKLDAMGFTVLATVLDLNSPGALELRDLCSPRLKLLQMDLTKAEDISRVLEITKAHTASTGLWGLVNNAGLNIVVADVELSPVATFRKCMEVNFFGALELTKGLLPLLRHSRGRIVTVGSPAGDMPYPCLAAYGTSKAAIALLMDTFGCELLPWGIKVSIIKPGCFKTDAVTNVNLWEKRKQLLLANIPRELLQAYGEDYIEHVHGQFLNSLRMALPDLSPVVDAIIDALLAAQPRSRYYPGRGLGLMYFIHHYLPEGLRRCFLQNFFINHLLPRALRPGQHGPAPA
Kind of assay: Inhibition of mouse 11beta-HSD2 up to 20 uM.

For assay [7], the species on record is Macaca fascicularis. The assay can be described thus: Inhibition of cynomolgus monkey 11beta-HSD2 up to 20 uM.

Sequence of 11-beta-hydroxysteroid dehydrogenase 1 (P50172 whole entry): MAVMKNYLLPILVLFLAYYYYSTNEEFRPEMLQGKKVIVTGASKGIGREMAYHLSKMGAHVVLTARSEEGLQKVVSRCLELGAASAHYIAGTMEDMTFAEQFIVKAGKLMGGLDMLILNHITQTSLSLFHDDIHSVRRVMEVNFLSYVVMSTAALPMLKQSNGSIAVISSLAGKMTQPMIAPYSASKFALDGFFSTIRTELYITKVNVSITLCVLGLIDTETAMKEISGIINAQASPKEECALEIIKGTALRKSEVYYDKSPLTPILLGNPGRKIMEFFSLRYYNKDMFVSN

With `OCC(O)c1cccn2c(C3(c4ccc(Cl)cc4)CC3)nnc12` (stereo not drawn), in assay [1], the IC50 is > 10 µM. In assay [2], the concentration giving a half-maximal response (EC50) is > 50 µM.
As to `OCCCc1cccn2c(C3(c4ccc(Cl)cc4)CC3)nnc12`, the IC50 in assay [1] was 5.7 µM. The 50% effective concentration (EC50) in assay [2] was determined as 25 µM.
With `CC(C)(C(=O)O)c1cccn2c(C3(c4ccc(Cl)cc4)CC3)nnc12`, in assay [1], the half-maximal inhibitory concentration (IC50) is > 10 µM. Moreover, in assay [2], the half-maximal effective concentration (EC50) is > 50 µM.
In the case of `CC(C)(O)c1cccn2c(C3(c4ccc(Cl)cc4)CC3)nnc12`, the inhibition result in assay [3], in assay [5], in assay [6] and in assay [7] was “inactive” throughout. For the same compound, the Ratio Ki in assay [4] was 55.
Turning to `OC(c1cccn2c(C3(c4ccc(Cl)cc4)CC3)nnc12)C1CC1` (stereo not drawn), the IC50 in assay [1] amounted to 8.06 µM. Further, the response in assay [2] was half-maximal at 48 µM (EC50).

One may read the IC50 as the concentration that inhibits the measured activity by half. In general, EC50 refers to the concentration giving half of the maximal effect.
